Assay results as given in patent publication US20240245770A1, “COMPOSITIONS AND METHODS FOR TREATING NEUROMUSCULAR DISORDERS” (The Regents of the University of California, priority 2019, published 2024).

How the values were obtained:
Assay type in all cases: cell-based, human
PBMCs = assay: PBMC flow cytometry, percentages of immune subsets
Procedure: Percentage of immune subsets in PBMCs in lab blood drawn. PBMC were isolated from peripheral blood of donors using ficoll-hypaque gradient centrifugation. The percentages of each cell subset in PBMCs were determined by flow cytometric analysis after staining with specific fluorescent conjugated antibodies directed to the cell surface receptors. No significant differences in the percentages of immune subsets between the donors (FIG. 1A and FIG. 1B).

[1] = system: Oral squamous carcinoma cells (OSCCs) and Oral squamous stem cell carcinoma (OSCSCs); assay: NAC blocking of CDDP mediated cell death (PI staining, flow cytometry); conditions: NAC 20 mM, 24 hours, OSCCs and OSCSCs
Procedure: Testing and selection of the best NAC to be used in ALS treatment. […] Afterwards OSCCs and OSCSCs were detached, and the viability of cells was determined after PI staining followed by flow cytometric analysis. In this figure Forward and Side Scatters (Fs/ss) were assessed since decrease in the Fs/ss is seen in cells undergoing cell death.
Testing and selection of the best NAC to be used in ALS treatment. […] Afterwards OSCCs and OSCSCs were detached, and the viability of cells was determined after PI staining followed by flow cytometric analysis. In this figure the percentage of PI stained cells were assessed.

[2] = system: Dental Pulp Stromal Cells (DPSCs); assay: NAC blocking of H2O2 mediated cell death in DPSCs; conditions: NAC 20 mM, 24 hours, FIG. 67
Procedure: Testing and selection of the best NAC to be used in ALS treatment. […] Afterwards DPSCs were detached, and the viability of cells was determined after PI staining followed by flow cytometric analysis. In this figure the decrease in FS/ss and the percentage of PI stained cells were assessed.

OSCSCs = assay: NAC blocking of H2O2 mediated cell death in OSCSCs; conditions: NAC 20 mM, 24 hours, FIG. 68
[3] = ALS patient H107 JC, Post-NAC, Pre-young plasma
[4] = ALS patient H110 RS, Post-NAC infusion

## CC(=O)N[C@@H](CS)C(=O)O [NAC, N-Acetyl-Cysteine]
PBMCs; [3]
  CD4, percentage of immune subset: 31.4%
  CD8, percentage of immune subset: 15.1%
  CD14, percentage of immune subset: 15.0%
  CD19, percentage of immune subset: 24.6%
  NK, percentage of immune subset: 11.5%
  NKT, percentage of immune subset: 3.58%
  total of immune subsets: 97.6%
PBMCs; [4]
  CD4, percentage of immune subset: 27.6%
  CD8, percentage of immune subset: 20.4%
  CD14, percentage of immune subset: 27.1%
  CD19, percentage of immune subset: 10.0%
  NK, percentage of immune subset: 15.3%
  total of immune subsets: 100.4%
[1]; FIG. 65
  CDDP mediated cell death, Forward and Side Scatters (Fs/ss): blocks CDDP mediated Cell death in Oral tumors
[1]; FIG. 66
  CDDP mediated cell death, percentage of PI stained cells: blocks CDDP mediated Cell death in Oral tumors
[2]
  H2O2 mediated cell death (Fs/ss and PI positive cells): blocks H2O2 mediated Cell death in DPSCs
OSCSCs
  H2O2 mediated cell death (Fs/ss and PI positive cells): blocks H2O2 mediated Cell death in OSCSCs
